Experimental data taken from patent US20120295866A1, “Synthesis And Use Of Glycoside Pro-Drug Analogs” (Nutek Pharma Ltd., priority 2011, published 2012).
Values after ≈ are worked out from the molar mass of the structure shown. “Also recorded” adds a separate entry of the source.

What was measured:
[1] = Solubility determination of propofol analogs in D2O by 1H NMR with DSS internal standard; settings: for solubility: D2O, water, thermodynamic from solid
Method: Thus the soapy-like solutions obtained were diluted until opalescent and diluted further until the opalescence visually disappeared.

[2] = Pharmacokinetics: concentration of propofol in rat plasma after intravenous infusion of each pro-drug, LC/MS/MS; settings: for Mean Concentration of Propofol in Rat Plasma After Intravenous Administration: analyte propofol from the administered compound; for pro-drug efficiency, release of propofol: releasing the propofol in a matter of minutes after infusion, rat
Method: (§1) Blood samples were to be taken pre-dose, during dose and post dose at designated intervals, with the blood quickly processed and stored at −70° C. until analysis.
(§2) Formulations were prepared on the morning of the dosing day and each was passed through a 0.22 μm filter prior to being administered to animals. A standard dose of 0.168 mmol/Kg per analog was administered to each of the rats. […] Analog stability in the formulations was verified by preparing each formulation and harvesting 200 μL aliquots at 0, 1, 2 and 8 hr while standing at room temperature. After harvesting, each sample was immediately frozen in dry ice until analysis; concentrations of test compounds in the samples were examined by HPLC-UV.
(§3) The animals were surgically prepared with indwelling cannula, double cannulation in carotid artery and jugular vein for i.v. infusion. The anesthetic pentobarbital was used during the surgery, and the animals were allowed to recover 3-5 days after surgery before the formulation was dosed. The dose formulation was administered intravenously via the jugular vein cannula. The 16.8 μmol/mL formulation was administered i.v. at a rate of 1 mL/Kg/min for 10 min.
(§4) Approximately 0.20 mL blood was collected at each designated time point from carotid artery via a catheter. A total of 12 plasma samples were taken from each animal: 1 pre-dose; 2 during the dose (5 into the 10 min infusion and one just prior termination of the 10 min infusion) and 9 post-infusion at 2, 5, 15, 30 min and 1, 2, 3, 4, and 6 hr post-dose. All blood samples were transferred into plastic microcentrifuge tubes containing 5 μL of K2-EDTA (0.5M) as anti-coagulant and placed on ice until processed for plasma. Blood samples were processed for plasma by centrifugation at approximately 5° C. Plasma samples were then stored in 1.5 mL tubes, quick frozen over dry ice and kept at −70±10° C. until LC/MSMS analysis.
(§5) For each, a minimum of 6 standard point curve runs in duplicates, and minimum of 5 standards were back calculated to within ±20% of their nominal concentrations. The LLOQ of each test article in plasma was established and 6 QC samples were included in assay runs of samples to ensure assay performance.
(§6) Plasma concentration versus time data was analyzed by non-compartmental approaches using the WinNonlin software program (version 5.2, Pharsight, Mountain View, Calif.) and the pharmacokinetic parameters T½, CL, Vss, AUC(0-t), AUC(0-inf), MRT, and graphs of plasma concentration versus time calculated for each.

rats = test: Clinical observations of rats during administration of propofol analogs in the pharmacokinetics study
Method: as §1, §2, §3

[3] = Pharmacokinetics: concentration of prodrug (or propofol) in rat plasma after intravenous infusion, LC/MS/MS; settings: for Mean concentration of prodrug and propofol in rat plasma after intravenous infusion administration: analyte = administered compound; for AUC(0-t) / Cmax / Tmax / AUC(0-inf) / MRT inf / Vd / clearance / half-life: male, Sprague-Dawley, rat, plasma, iv, 0.168 mmol/Kg
Method: as §1, §2, §3, §4, §5, §6

[4] = time post-10 min i.v. infusion, 0.168 mmol/Kg

Row | Structure (SMILES) | solubility [1] | Mean Concentration of Propofol in Rat Plasma After Intravenous Administration ([2]; Time 0 h (pre-dose)) | pro-drug efficiency, release of propofol [2] | Clinical Observation: recovered at (rats; [4]) | Mean concentration of prodrug and propofol in rat plasma after intravenous infusion administration ([3]; Time 0 h (pre-dose)) | Mean concentration of prodrug and propofol in rat plasma after intravenous infusion administration ([3]; Time 0.25 h) | Mean concentration of prodrug and propofol in rat plasma after intravenous infusion administration ([3]; Time 0.417 h) | Mean concentration of prodrug and propofol in rat plasma after intravenous infusion administration ([3]; Time 0.667 h) | Mean concentration of prodrug and propofol in rat plasma after intravenous infusion administration ([3]; Time 1.166 h) | Mean concentration of prodrug and propofol in rat plasma after intravenous infusion administration ([3]; Time 2.166 h) | Mean concentration of prodrug and propofol in rat plasma after intravenous infusion administration ([3]; Time 3.166 h) | Mean concentration of prodrug and propofol in rat plasma after intravenous infusion administration ([3]; Time 4.166 h) | Mean concentration of prodrug and propofol in rat plasma after intravenous infusion administration ([3]; Time 6.166 h) | AUC(0-t) [3] | Cmax [3] | Tmax [3] | AUC(0-inf) [3] | MRT inf [3] | Vd [3] | half-life [3] | further results
1 | CC(C)c1cccc(C(C)C)c1OC(=O)OCCO[C@H]1O[C@H](CO)[C@@H](O)[C@H](O)[C@H]1O [Compound 32] | 13.3 mM (≈ 5700 µg/mL) | BQL | very efficient pro-drugs | recovered at about 26 min | BQL | BQL | BQL | BQL | BQL | BQL | BQL | BQL | BQL | 0.000657 µM·h | 0.00538 µM | 8.4 min | – | – | – | – | Clinical Observation: Rats soporous at (rats; [4]): Rats soporous at about 3 min and
2 | CC(C)c1cccc(C(C)C)c1OC(=O)OCCO[C@@H]1O[C@H](CO)C(O[C@H]2O[C@H](CO)[C@@H](O)[C@H](O)[C@H]2O)[C@H](O)[C@H]1O (stereo partly drawn) [Compound 24] | > 20 mM | BQL | very efficient pro-drugs | recovered at about 30 min | BQL | – | – | – | – | BQL | – | BQL | BQL | 0.786 µM·h | 8.1 µM | 8.4 min | 0.791 µM·h | 12.4 min | 120 L/kg | 53.2 min | clearance [3]: 5800 mL/min/kg
3 | CC(C)c1cccc(C(C)C)c1OC(=O)OCCO[C@@H]1O[C@H](CO)[C@@H](O)[C@H](O)[C@H]1O [Compound 9] | 9.4 mM (≈ 4030 µg/mL) | BQL | very efficient pro-drugs | recovered at about 30 min | BQL | BQL | BQL | BQL | BQL | BQL | BQL | BQL | BQL | – | – | – | – | – | – | – | Mean concentration of prodrug and propofol in rat plasma after intravenous infusion administration ([3]; Time 0.083 h (during 10 min infusion)): BQL; Mean concentration of prodrug and propofol in rat plasma after intravenous infusion administration ([3]; Time 0.167 h (end of 10 min infusion)): BQL; Mean concentration of prodrug and propofol in rat plasma after intravenous infusion administration ([3]; Time 0.2 h): BQL
4 | CC(C)c1cccc(C(C)C)c1OC(=O)OCCCO[C@H]1O[C@H](CO)[C@@H](O)[C@H](O)[C@H]1O [Compound 33] | 5.7 mM (≈ 2520 µg/mL) | BQL | very efficient pro-drugs | recovered at about 30 min | BQL | BQL | BQL | BQL | BQL | BQL | BQL | BQL | BQL | 0.00304 µM·h | 0.0231 µM | 10.2 min | – | – | – | – | Mean Concentration of Propofol in Rat Plasma After Intravenous Administration ([2]; Time 4.166 h): BQL; Mean Concentration of Propofol in Rat Plasma After Intravenous Administration ([2]; Time 6.166 h): BQL; Clinical Observation: Rats soporous at (rats; [4]): Rats soporous at about 3 min and
5 | CC(C)c1cccc(C(C)C)c1O [Propofol, 2,6-diisopropylphenol, reference compound] | 1.1 mM (≈ 196 µg/mL) | BQL | – | – | – | – | – | – | – | – | – | – | – | 10.6 µM·h | 31.9 µM | 10.8 min | 12.6 µM·h | 209 min | 61.2 L/kg | 383 min | Clinical Observation: Rats soporous at (rats; [4]): Rats soporous at about 4 min and; Clinical Observation: recovered at (rats; time post-10 min infusion, 5% cremophor vehicle): recovered at about 1.5 hr; clearance [3]: 265 mL/min/kg
6 | CC(C)c1cccc(C(C)C)c1OC(=O)NCCO[C@@H]1O[C@H](CO)[C@@H](O)[C@H](O)[C@H]1O [Compound 17] | 1.6 mM (≈ 684 µg/mL) | BQL | – | – | BQL | – | – | – | – | – | – | – | – | 61.6 µM·h | 313 µM | 10.2 min | 71.8 µM·h | 16.6 min | 0.657 L/kg | 26.2 min | water solubility (in words) ([1]; reason for cosolvent in the dose formulation): poor water solubility; Mean Concentration of Propofol in Rat Plasma After Intravenous Administration ([2]; Time 2.166 h): BQL; Mean Concentration of Propofol in Rat Plasma After Intravenous Administration ([2]; Time 3.166 h): BQL; Mean Concentration of Propofol in Rat Plasma After Intravenous Administration ([2]; Time 4.166 h): BQL; Mean Concentration of Propofol in Rat Plasma After Intravenous Administration ([2]; Time 6.166 h): BQL; Clinical Observation (adverse findings, individual rats) (rats; times post-10 min infusion, vehicle 10% Tween80, cloudy): died at 15 min; also recorded: died at 1.5 h from hematuria; clearance [3]: 39.1 mL/min/kg
7 | CC(C)c1cccc(C(C)C)c1OC(=O)OCCCO[C@@H]1O[C@H](CO)C(O[C@H]2O[C@H](CO)[C@@H](O)[C@H](O)[C@H]2O)[C@H](O)[C@H]1O (stereo partly drawn) [Compound 25, 1-((2′,6′-diisopropylphenoxy)carbonyloxy)propyl-β-D-maltose] | > 20 mM | BQL | very efficient pro-drugs | recovered at about 35 min | BQL | – | – | – | – | – | BQL | BQL | BQL | 8.57 µM·h | 68.4 µM | 10.2 min | 8.57 µM·h | 4.62 min | 1.51 L/kg | 15.2 min | clearance [3]: 337 mL/min/kg
8 | CC(C)c1cccc(C(C)C)c1OC(=O)OCCCO[C@@H]1O[C@H](CO)[C@@H](O)[C@H](O)[C@H]1O [Compound 12] | 5.5 mM (≈ 2430 µg/mL) | BQL | very efficient pro-drugs | recovered at about 30 min | BQL | BQL | BQL | BQL | BQL | BQL | BQL | BQL | BQL | 0.000773 µM·h | 0.00678 µM | 10.2 min | 0.00122 µM·h | 6 min | – | 3.6 min | Mean Concentration of Propofol in Rat Plasma After Intravenous Administration ([2]; Time 4.166 h): BQL; Mean Concentration of Propofol in Rat Plasma After Intravenous Administration ([2]; Time 6.166 h): BQL; Mean concentration of prodrug and propofol in rat plasma after intravenous infusion administration ([3]; Time 0.2 h): BQL
